Data published in the RepoRT retention time repository.

Assay: HILIC, Waters Atlantis Premier BEH Z-HILIC, 100 × 2.1 mm, 1.7 µm, 40 °C, 0.15 mL/min, estimated dead time 1.5 min; A: water + 20 mM ammonium carbonate + 5 µM medronic acid; B: 10% water + 90% acetonitrile + 2 mM ammonium carbonate + 0.5 µM medronic acid; gradient (min/%B) 0/100 18/60 18.1/20 21.5/20 22/100 23.5/100 25.5/100
Conditions: stereoisomer not certain

Row | Compound | LC retention time
1 | O=C(O)CCCCC1SCC2NC(=O)NC21 (configuration not stated) [Biotin] | 4.67 min
2 | O=C(O)CCC(O)C(=O)O (configuration not stated) [2-hydroxy glutaric acid] | 8.86 min
3 | C[N+](C)(C)CC(O)CC(=O)[O-] (configuration not stated) [Carnitine] | 10.1 min
4 | C=C(OP(=O)(O)O)C(=O)O [PEP] | 13.1 min
5 | O=C(O)CC(O)(CC(=O)O)C(=O)O [Citric acid] | 14.3 min
6 | O=C(O)C(CO)OP(=O)(O)O (configuration not stated) [Phosphoglyceric acid A] | 12.8 min
7 | CC(C)CC(N)C(=O)O (configuration not stated) [Leucine] | 6.46 min
8 | O=P(O)(O)OCC(O)CO (configuration not stated) [Glycerol-3-phosphate] | 10.4 min
9 | CCC(=O)OC(CC(=O)[O-])C[N+](C)(C)C (configuration not stated) [carnitine-C3] | 6.46 min
10 | CC(O)C(=O)O (configuration not stated) [Lactic Acid] | 3.35 min
11 | NC(=O)CCC(N)C(=O)O (configuration not stated) [Glutamine] | 9.87 min
12 | O=C(O)CCC(=O)C(=O)O [2-Oxoglutaric acid] | 8.86 min
13 | NC(CCC(=O)O)C(=O)O (configuration not stated) [Glutamic acid] | 9.81 min
14 | CCC(C)C(N)C(=O)O (configuration not stated) [Isoleucine] | 6.4 min
15 | O=C1CC(C(=O)O)NC(=O)N1 (configuration not stated) [dihydroorotic acid] | 4.08 min
16 | O=C(O)CCC(=O)O [Succinic Acid] | 8.9 min
17 | O=C(O)CC(C(=O)O)C(O)C(=O)O (configuration not stated) [Isocitric acid] | 14 min

Next, values leading:

Row | LC retention time | Compound
18 | 9.42 min | Nc1ncnc2c1ncn2C1OC(COP(=O)(O)O)C(O)C1O (configuration not stated) [AMP]
19 | 3.63 min | Nc1ncnc2c1ncn2C1OC(CO)C(O)C1O (configuration not stated) [Adenosine]
20 | 11.4 min | CC(C)(COP(=O)(O)OP(=O)(O)OCC1OC(n2cnc3c(N)ncnc32)C(O)C1OP(=O)(O)O)C(O)C(=O)NCCC(=O)NCCS (configuration not stated) [CoenzymeA]
21 | 9.95 min | CC(=O)NC1C(OP(=O)(O)OP(=O)(O)OCC2OC(n3ccc(=O)[nH]c3=O)C(O)C2O)OC(CO)C(O)C1O (configuration not stated) [UDP-GlcNAc]
22 | 9.69 min | CC(=O)SCCNC(=O)CCNC(=O)C(O)C(C)(C)COP(=O)(O)OP(=O)(O)OCC1OC(n2cnc3c(N)ncnc32)C(O)C1OP(=O)(O)O (configuration not stated) [Acetyl-CoA]
23 | 7.67 min | Cc1cc2nc3c(=O)[nH]c(=O)nc-3n(CC(O)C(O)C(O)COP(=O)(O)OP(=O)(O)OCC3OC(n4cnc5c(N)ncnc54)C(O)C3O)c2cc1C (configuration not stated) [FAD]
24 | 11.6 min | Nc1ncnc2c1ncn2C1OC(COP(=O)(O)OP(=O)(O)O)C(O)C1O (configuration not stated) [ADP]
25 | 9.95 min | NC(=O)c1ccc[n+](C2OC(COP(=O)(O)OP(=O)(O)OCC3OC(n4cnc5c(N)ncnc54)C(O)C3O)C(O)C2O)c1 (configuration not stated) [NAD]
26 | 13.6 min | Nc1ncnc2c1ncn2C1OC(COP(=O)(O)OP(=O)(O)OP(=O)(O)O)C(O)C1O (configuration not stated) [ATP]
27 | 8.31 min | NC(=O)C1=CN(C2OC(COP(=O)(O)OP(=O)(O)OCC3OC(n4cnc5c(N)ncnc54)C(O)C3O)C(O)C2O)C=CC1 (configuration not stated) [NADH]
28 | 13.4 min | NC(=O)c1ccc[n+](C2OC(COP(=O)(O)OP(=O)(O)OCC3OC(n4cnc5c(N)ncnc54)C(OP(=O)(O)O)C3O)C(O)C2O)c1 (configuration not stated) [NADP]
29 | 11.3 min | O=C(CO)C(O)C(O)C(O)COP(=O)(O)O (configuration not stated) [Fructose 6-phosphate]
30 | 12.3 min | O=P(O)(O)OCC1OC(O)C(O)C(O)C1O (configuration not stated) [Glucose-6-phosphate]
31 | 6.98 min | OCC1OC(O)C(O)C(O)C1O (configuration not stated) [Hexose]
32 | 10.4 min | O=C(CO)COP(=O)(O)O [Triose phosphate]
